For assay [1] the following is noted: patients treated with Januvia; cited from earlier work.
The nature of assay [2]: Insulin challenge, blood glucose after bolus IP injection. Particulars: IP injection of insulin. The class given is in vivo, mouse. As for the experimental part: FIG. 6. Mice null for MG29 (mg29−/−) display compromised response to insulin challenge. Fasting blood glucose levels were measured in mice following a bolus IP injection of insulin at time 0 on chart. […] Mean±SEM is shown. ANOVA is used for analysis with **: P<0.01;***P<0.001.

A further assay deals with rat's soleus muscle. Conditions: rat soleus incubated with GLP1; cited from earlier work.
Assay [3] concerns extensor digitorum longus (EDL) of non-fasted db/db mice. Put plainly: Ex vivo contractility assay, force recovery after fatigue. On the set-up: species or system mouse. Here is the method:
Application of GLP1 can improve contractility in skeletal muscle from diabetic mice. […] This leads us to test whether the increased Ca sparks activity can be translated as increased muscle force as measured by ex vivo contractility assays. The extensor digitorum longus (EDL) of non-fasted db/db mice is mounted to a force transducer and electrically stimulated following the protocol shown in FIG. 11. A 10 fold higher dose of GLP1 (100 nM) used in the Ca^2+ spark experiments is applied to the contractility study, to take into account the increased mass of the anatomical muscle over the isolated muscle fiber. Muscles were tested for their maximum force (Tmax) produced at various frequencies and then fatigued using rapid pulses of an electric field, which was then followed by another measurement of Tmax. Following 1 hour of GLP1 application, this stimulation protocol was repeated on the same muscles (FIG. 11a). Calculating the ratio of Tmax before and after GLP1 application will show how the application of GLP1 can influence the recovery of muscle function following fatigue.
Intact EDL and soleus muscle isolation. Intact EDL and soleus muscles were dissected from mice and maintained in Isotonic Tyrode solution supplemented with 12 mM glucose, continuously bubbled with 100% O2. […] Muscles were mounted vertically on a glass-stimulating apparatus (Radnoti) with platinum electrodes and attached to a movable isometric force transducer and to a stationary anchor, which allowed muscles to be stretched until both maximal forces for a given frequency and the frequency producing Tmax were obtained.
Force measurements during fatigue. A Powerlab computer-interface program (ADInstruments) was used to control the electrical stimulation protocols and to record, digitize and store force output data. […] Forces were normalized into gram after calibration and all data were analyzed by Origin software (OriginLab). […]
(§1) Solutions. […] 5 CaCl2, 2 MgCl2 and 10 HEPES (ph 7.2), with measured osmolality of 290 mOsm. […]

The next assay relates to WT muscle fibers. Put plainly: Osmotic shock-induced Ca2+ sparks in isolated FDB muscle fibers (confocal imaging). The class given is cell-based, mouse. Conditions: GLP1 treatment. Here is the method: (§2) The Ca spark response in skeletal muscle is compromised in mg29−/− and diabetic muscle. […] Considering that we see a similar functional phenotype with glucose handling between the mg29−/− animal and diabetic patients, we tested if the we would see similar defects in Ca signaling as well. Ca spark measurement is performed in 13-16 weeks old control wild type, type I diabetic mice (akita) or type II diabetic mice (db/db). Non-fasted serum glucose levels are recorded from blood samples taken from the tail vein immediately before sacrificing the mice. Following an established protocol in our laboratory, we measured Ca sparks in muscle fibers isolated from the flexor digitorum brevis (FDB). We observed no increase in the frequency of spontaneous resting Ca sparks in db/db muscle fibers (data not shown). […] The degree that the spark frequency decreased could be directly correlated with the blood glucose level of the animal, with more diabetic animals displaying less sparks than those animals with lower blood glucose levels (FIG. 9b).
(§3) FDB skeletal muscle fiber isolation. Mice were sacrificed by cervical dislocation and hind limbs were surgically removed and placed into Isotonic Tyrode with measured osmolarity of 290 mOsm. Flexor Digitorum Brevis (FDB) muscles were excised and transferred into Tyrode supplemented with 0.2% type I collagenase (Sigma C-0310), for 90 minutes at 37° C. Muscle fibers were gently dissociated by several passages through a small diameter pipette. Isolated FDB muscle fibers were plated onto a ΔTC glass-bottomed dishes (Bioptech Inc.) in 1 ml of Tyrode buffer.
(§4) Confocal Ca^2+ imaging and spark analysis. Following individual muscle fiber isolation, the fibers were plated onto a dish containing isotonic tyrode solution (290 mOsm). 10 μM Fluo4-AM, a membrane permeable cytosolic Ca^2+ indicator dye is loaded onto the dish and left incubated for 60 minutes in room temperature along with different drug treatment. Replacing 50% of the dish volume with isotonic Tyrode for three times washed excess dye from the dish. Using brightfield confocal microscopy, fibers were then be screened by light microscopy for intact sarcolemmal membranes and regular striation patterns. Muscle fibers that fulfill these criteria were bathed in the isotonic solution, a physiological resting condition. Measurement of SR Ca^2+ release was performed on a BioRad Radiance-2100 confocal microscope equipped with Argon laser ([…]), Helium-Neon laser (632 nm), and a 40×, 1.3 NA oil immersion objective. An acquisition rate of 2 ms perline was used for line scan imaging, while serial x-y images were acquired at 3.08 s per frame (512×512 pixels). Osmotic shock to disrupt the juxtaposition of membrane coupling was applied to analyze whether knockdown of Bin1 alters the Ca^2+ sparks activity. Initially, fiber was perfused with isotonic solution for 30 seconds prior to applying hypotonic Tyrode solution (170 mOsm) for 1 minute that induces membrane swelling. […] For each animal, 3-4 fibers were treated by osmotic shock, and from each fiber 2 images (comprised of 30000 2 ms linescans of 512 pixels) were recorded. Image analysis and normalization of linescan intensities to the calculated resting fluorescence (F0) and determination of the amplitude and duration of individual events was performed using custom routines for IDL software. […]
as §1

In a further assay the test system is db/db muscle fibers. The assay is described as above. It counts as cell-based, mouse. As for the experimental part: as §2, §3, §4, §1

Entries after “also recorded” stand apart in the source; their conditions may differ. Where two headings read alike, the source gives them in different places. No end group written: not given here.

For the compound `N[C@@H](CC(=O)N1CCn2c(nnc2C(F)(F)F)C1)Cc1cc(F)c(F)cc1F` [Januvia, Sitagliptin], the blood glucose entry in assay [1] is “normalization”.
As for insulin, in assay [2] (mg29-/- mice), the blood glucose level result is listed as “much less effect”. Besides, in assay [2] (wild type control animals), the blood glucose result is recorded as “significant decrease”.
In the case of “GLP1 7-36 Amide (HAEGTFTSDVSSYLEGQAAKEFIAWLVKGR-NH2; UniProt P01275 98-127, looked up) [Glucagon like peptide 1 (GLP1) of pro-glucagon origin is a type of incretin hormone; obtained from Sigma]”, in the assay on rat's soleus muscle, the PKB activity entry is reported as “increased” and the glycogen synthase activity result is recorded as “increased”. Moreover, the twitch ratio entry in assay [3] (after GLP1 treatment, 100 nM) is given as “no significant change”. In assay [3] (db/db EDL, 100 nM GLP1 for 1 h), the “Tmax recovery ratio (maximal force after fatigue to before fatigue)” value is “back to the levels seen in the WT muscles; also recorded: improves muscle force”. The force frequency relationship entry in assay [3] (db/db muscle, 100 nM GLP1) is “did not significantly alter”. Besides, in the assay on WT muscle fibers (WT fibers), the “peripheral subsarcolemmal distribution of Ca2+ sparks” value is given as “does not alter”. In the assay with WT muscle fibers (WT muscle), the “Ca2+ spark frequency” value is given as “minimal increases”. Further, the “Ca2+ spark events / frequency” value in the assay with db/db muscle fibers (db/db FDB fibers after osmotic shock, GLP1 10 nM for 1 hour) is “significantly improves; also recorded: can be reversed; also recorded: significant increased”. In addition, the “peripheral subsarcolemmal distribution of Ca2+ sparks” value with db/db muscle fibers (db/db fibers, GLP1 treatment) is “does not alter”. Moreover, the “GLP1 effect on Ca2+ sparks by blood glucose group” value in the assay on db/db muscle fibers (db/db mice, high blood glucose >330 mg/dL vs lower blood glucose <260 mg/dL) is reported as “maximum activity on db/db mice that exhibit high hyperglycemia condition”.

(Values after US8603993B2, “Compositions and methods modulating MG29 for the treatment of diabetes” (University of Medicine and Dentistry of New Jersey, priority 2009, dated 2013).)
